Tests used:
Format in all cases: in vivo
German cockroach = experiment: Example 2: German cockroach knockdown and mortality, bifenthrin and imidacloprid
Text: (§1) The following examples further illustrate the present invention, but, of course, should not be construed as in any way limiting its scope. The examples set forth certain biological data illustrating the efficacy of the compositions of the present invention in controlling general household pests. Each example embodies a separate test wherein the pests were randomly selected from a population at a random age. As a result, from example to example, the ages of the pests can be very different. This age difference potentially translates to different baselines for each example. Therefore, data should only be compared within the example and not from example to example due to the differences in age of the pests from example to example. Unless otherwise indicated, all parts, percentages, and the like are by weight. The spray chamber used in the examples was approximately 76 inches tall, 73 inches long and 31 inches deep with an adjustable shelf (approximately 22 inches deep) and a movable spray nozzle. The spray chambers were calibrated to deliver a volume of approximately 1 gallon of liquid per 1000 square feet of area at about 14 pounds per square inch of pressure. A DeVilbiss hand held sprayer (Atomizer model 152) manufactured by DeVilbiss located in Glendale Heights, Ill. was used in testing house flies and mosquitoes. The DeVilbiss was used to apply approximately 3-5 milliliters of product at about 10 pounds per square inch.
The compositions of the present invention were tested for German cockroach activity in the following manner:
(§2) Test compositions made up of TALSTARONE® MULTI-INSECTICIDE and a wettable powder of imidacloprid (MERIT) in distilled water were prepared that provided appropriate rates of application of combinations of bifenthrin and imidacloprid, as well as bifenthrin and imidacloprid alone.
(§3) The spray chamber was then calibrated to deliver the treatment solution at the desired volume and pressure over the desired area on the chamber shelf. Spray chamber shelf height was adjusted to approximately 18 inches from the spray tip. The shelf was then covered with aluminum foil and the center of the shelf from front-to-back and end-to-end was determined. A desired number of 4.0″ sieve circles were marked on the aluminum foil with a permanent marker. The inside of a desired number of PVC rings were coated with a petroleum jelly/mineral oil mixture (1:2 ratio). The PVC rings were place on the sieve circles. 10 male German cockroaches were placed inside each PVC ring. The sprayer was activated and the test compound was applied to each PVC ring interior. German cockroach knockdown and mortality were measured.

Oriental cockroach [1] = experiment: Example 4: Oriental cockroach knockdown and mortality, bifenthrin and imidacloprid
Text: as §1
(§4) The compositions of the present invention were tested for Oriental cockroach activity in the following manner:
as §2
as §3, with “Oriental” for “German”

House Fly = experiment: Example 7: house fly knockdown and mortality, bifenthrin and imidacloprid
Text: as §1
(§5) The compositions of the present invention were tested for house fly activity in the following manner:
as §2
(§6) A DeVilbiss hand held sprayer was used to deliver the treatment solution at the desired volume and pressure. The house flies to be treated were collected and placed in screened 16 oz paper cups. The hand held sprayer was activated and the test compound was applied to each paper cup interior. House fly knockdown and mortality were measured.

Oriental cockroach [2] = experiment: Example 15: Oriental cockroach knockdown and mortality, bifenthrin and clothianidin
Text: as §1, §4
(§7) Test compositions made up of TALSTARONE® MULTI-INSECTICIDE and a 16% a.i. water dispersible granular of clothianidin in distilled water were prepared that provided appropriate rates of application of combinations of bifenthrin and clothianidin, as well as bifenthrin and clothianidin alone.
as §3, with “Oriental” for “German”

House Flies = experiment: Example 17: house fly knockdown and mortality, bifenthrin and clothianidin
Text: as §1, §5, §7, §6

[3] = rate of appln. 10 PPM (0.001% by weight)
[4] = rate of appln. 50 PPM (0.005% by weight)

SMILES: Cc1c(COC(=O)[C@@H]2[C@H](/C=C(\Cl)C(F)(F)F)C2(C)C)cccc1-c1ccccc1 (racemic) [A, 2-methylbiphenyl-3-ylmethyl (Z)-(1RS)-cis-3-(2-chloro-3,3,3-trifluoroprop-1-enyl)-2,2-dimethylcyclopropanecarboxylate]
- Knockdown Rate @ 10 minute (German cockroach; 200 PPM, 0.02% by weight): 0%
- Knockdown Rate @ 15 minute (German cockroach; 200 PPM, 0.02% by weight): 3%
- Knockdown Rate @ 30 minutes (German cockroach; 200 PPM, 0.02% by weight): 45%
- Mortality Rate @ 60 minutes (German cockroach; 200 PPM, 0.02% by weight): 100%
- Mortality Rate @ 120 minutes (German cockroach; 200 PPM, 0.02% by weight): 100%
- Mortality Rate @ 1 day (German cockroach; 200 PPM, 0.02% by weight): 100%
- Knockdown Rate @ 10 minute (German cockroach; 600 PPM, 0.06% by weight): 0%
- Knockdown Rate @ 15 minute (German cockroach; 600 PPM, 0.06% by weight): 8%
- Knockdown Rate @ 30 minutes (German cockroach; 600 PPM, 0.06% by weight): 60%
- Mortality Rate @ 60 minutes (German cockroach; 600 PPM, 0.06% by weight): 100%
- Mortality Rate @ 120 minutes (German cockroach; 600 PPM, 0.06% by weight): 100%
- Mortality Rate @ 1 day (German cockroach; 600 PPM, 0.06% by weight): 100%
- Knockdown Rate @ 15 minute (Oriental cockroach [1]; 10 PPM, 0.001% by weight): 0%
- Knockdown Rate @ 30 minute (Oriental cockroach [1]; 10 PPM, 0.001% by weight): 0%
- Mortality Rate @ 60 minute (Oriental cockroach [1]; 10 PPM, 0.001% by weight): 0%
- Mortality Rate @ 120 minute (Oriental cockroach [1]; 10 PPM, 0.001% by weight): 0%
- Mortality Rate @ 4 hours (Oriental cockroach [1]; 10 PPM, 0.001% by weight): 0%
- Mortality Rate @ 1 day (Oriental cockroach [1]; 10 PPM, 0.001% by weight): 15%
- Mortality Rate @ 2 days (Oriental cockroach [1]; 10 PPM, 0.001% by weight): 15%
- Knockdown Rate @ 15 minute (Oriental cockroach [1]; 50 PPM, 0.005% by weight): 0%
- Knockdown Rate @ 30 minute (Oriental cockroach [1]; 50 PPM, 0.005% by weight): 0%
- Mortality Rate @ 60 minute (Oriental cockroach [1]; 50 PPM, 0.005% by weight): 5%
- Mortality Rate @ 120 minute (Oriental cockroach [1]; 50 PPM, 0.005% by weight): 5%
- Mortality Rate @ 4 hours (Oriental cockroach [1]; 50 PPM, 0.005% by weight): 30%
- Mortality Rate @ 1 day (Oriental cockroach [1]; 50 PPM, 0.005% by weight): 70%
- Mortality Rate @ 2 days (Oriental cockroach [1]; 50 PPM, 0.005% by weight): 70%
- Knockdown Rate @ 15 minute (House Fly; 10 PPM, 0.001% by weight): 0%
- Knockdown Rate @ 30 minute (House Fly; 10 PPM, 0.001% by weight): 0%
- Knockdown Rate @ 45 minutes (House Fly; 10 PPM, 0.001% by weight): 17%
- Knockdown Rate @ 60 minutes (House Fly; 10 PPM, 0.001% by weight): 40%
- Knockdown Rate @ 120 minutes (House Fly; 10 PPM, 0.001% by weight): 63%
- Knockdown Rate @ 4 hours (House Fly; 10 PPM, 0.001% by weight): 50%
- Mortality Rate @ 1 day (House Fly; 10 PPM, 0.001% by weight): 30%
- Knockdown Rate @ 15 minute (House Fly; 50 PPM, 0.005% by weight): 0%
- Knockdown Rate @ 30 minute (House Fly; 50 PPM, 0.005% by weight): 78%
- Knockdown Rate @ 45 minutes (House Fly; 50 PPM, 0.005% by weight): 97%
- Knockdown Rate @ 60 minutes (House Fly; 50 PPM, 0.005% by weight): 97%
- Knockdown Rate @ 120 minutes (House Fly; 50 PPM, 0.005% by weight): 97%
- Knockdown Rate @ 4 hours (House Fly; 50 PPM, 0.005% by weight): 97%
- Mortality Rate @ 1 day (House Fly; 50 PPM, 0.005% by weight): 97%
- Knockdown Rate @ 10 minute (Oriental cockroach [2]; [3]): 0%
- Knockdown Rate @ 15 minute (Oriental cockroach [2]; [3]): 0%
- Knockdown Rate @ 30 minute (Oriental cockroach [2]; [3]): 0%
- Mortality Rate @ 60 minute (Oriental cockroach [2]; [3]): 0%
- Mortality Rate @ 120 minute (Oriental cockroach [2]; [3]): 0%
- Mortality Rate @ 4 hours (Oriental cockroach [2]; [3]): 0%
- Mortality Rate @ 1 day (Oriental cockroach [2]; [3]): 0%
- Mortality Rate @ 2 days (Oriental cockroach [2]; [3]): 3%
- Knockdown Rate @ 10 minute (Oriental cockroach [2]; [4]): 0%
- Knockdown Rate @ 15 minute (Oriental cockroach [2]; [4]): 0%
- Knockdown Rate @ 30 minute (Oriental cockroach [2]; [4]): 0%
- Mortality Rate @ 60 minute (Oriental cockroach [2]; [4]): 0%
- Mortality Rate @ 120 minute (Oriental cockroach [2]; [4]): 0%
- Mortality Rate @ 4 hours (Oriental cockroach [2]; [4]): 10%
- Mortality Rate @ 1 day (Oriental cockroach [2]; [4]): 20%
- Mortality Rate @ 2 days (Oriental cockroach [2]; [4]): 23%
- Knockdown Rate @ 15 minute (House Flies; [3]): 0%
- Knockdown Rate @ 30 minute (House Flies; [3]): 0%
- Knockdown Rate @ 45 minutes (House Flies; [3]): 0%
- Knockdown Rate @ 60 minutes (House Flies; [3]): 0%
- Knockdown Rate @ 120 minutes (House Flies; [3]): 3%
- Knockdown Rate @ 180 minutes (House Flies; [3]): 3%
- Knockdown Rate @ 4 hours (House Flies; [3]): 3%
- Mortality Rate @ 1 day (House Flies; [3]): 3%
- Knockdown Rate @ 15 minute (House Flies; [4]): 3%
- Knockdown Rate @ 30 minute (House Flies; [4]): 55%
- Knockdown Rate @ 45 minutes (House Flies; [4]): 66%
- Knockdown Rate @ 60 minutes (House Flies; [4]): 68%
- Knockdown Rate @ 120 minutes (House Flies; [4]): 74%
- Knockdown Rate @ 180 minutes (House Flies; [4]): 74%
- Knockdown Rate @ 4 hours (House Flies; [4]): 76%
- Mortality Rate @ 1 day (House Flies; [4]): 79%
